Results reported in patent EP4692095A1, “SALT CRYSTAL FORM OF QUATERNARY FUSED RING COMPOUND, AND PREPARATION METHOD THEREFOR AND USE THEREOF” (Jiangsu Hansoh Pharmaceutical Group Co., Ltd., priority 2023, dated 2024).
Values belong to the compound of their own block, whether it stands above or below them.

Key:
ABL1 WT kinase = ABL1 WT kinase (Homo sapiens, UniProt P00519); assay: In vitro inhibitory activity against ABL1 WT kinase (capillary electrophoresis, substrate peptide phosphorylation); assay type: biochemical; conditions: Maximum concentration 1 µM
ABL1 WT kinase, sequence (P00519 whole entry): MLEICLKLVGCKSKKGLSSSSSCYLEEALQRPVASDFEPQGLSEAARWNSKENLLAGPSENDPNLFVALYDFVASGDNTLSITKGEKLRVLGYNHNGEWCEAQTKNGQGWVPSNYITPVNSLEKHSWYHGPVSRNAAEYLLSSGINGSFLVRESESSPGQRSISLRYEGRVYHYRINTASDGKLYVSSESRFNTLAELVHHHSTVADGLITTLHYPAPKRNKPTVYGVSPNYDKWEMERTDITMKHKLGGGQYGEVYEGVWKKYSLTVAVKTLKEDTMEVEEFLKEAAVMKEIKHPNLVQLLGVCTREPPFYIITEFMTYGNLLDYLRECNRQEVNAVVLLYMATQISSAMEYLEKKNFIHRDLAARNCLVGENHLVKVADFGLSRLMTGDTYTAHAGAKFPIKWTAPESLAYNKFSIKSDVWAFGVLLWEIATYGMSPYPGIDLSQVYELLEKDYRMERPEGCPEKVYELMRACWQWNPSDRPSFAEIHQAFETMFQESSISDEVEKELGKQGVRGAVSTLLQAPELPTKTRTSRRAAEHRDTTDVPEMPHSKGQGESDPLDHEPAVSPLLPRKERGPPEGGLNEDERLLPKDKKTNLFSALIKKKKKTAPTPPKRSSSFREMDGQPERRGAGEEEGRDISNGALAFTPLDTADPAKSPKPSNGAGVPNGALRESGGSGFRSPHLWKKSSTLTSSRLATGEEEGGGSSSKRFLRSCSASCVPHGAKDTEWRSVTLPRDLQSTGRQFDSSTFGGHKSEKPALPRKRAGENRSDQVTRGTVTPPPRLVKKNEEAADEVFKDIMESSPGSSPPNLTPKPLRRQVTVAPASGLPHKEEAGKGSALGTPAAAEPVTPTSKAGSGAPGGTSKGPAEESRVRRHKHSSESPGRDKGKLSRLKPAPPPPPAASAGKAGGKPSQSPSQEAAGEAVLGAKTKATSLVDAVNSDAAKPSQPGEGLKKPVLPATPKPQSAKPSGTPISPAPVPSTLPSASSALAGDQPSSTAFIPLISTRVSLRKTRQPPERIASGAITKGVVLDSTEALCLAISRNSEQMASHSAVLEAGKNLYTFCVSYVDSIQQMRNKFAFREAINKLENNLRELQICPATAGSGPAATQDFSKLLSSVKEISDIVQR
Protocol: Capillary electrophoresis was used to detect the phosphorylation conversion rate of the substrate peptide to determine the IC50 value of the test compound for inhibiting the kinase (ABL1-WT). The maximum concentration of the compound tested in the test was 1000 nM, with 3-fold dilution, and a total of 12 concentrations (1000 - 0.0056 nM). First, an enzyme reaction system (the concentration of enzyme ABL1-WT was 1.3 nM, the concentration of substrate FLPeptide2 was 1.5 µM, and the reaction factor was 10 mM MgCl2) was prepared. After incubation at room temperature for 30 min, 5 µL of 4×ATP solution was added to start the enzyme reaction. After reacting at room temperature for 90 min, the reaction was stopped by adding a stop buffer (containing 0.5 M EDTA). The sample was analyzed using an EZ reader (analysis conditions: pressure -1.5PSI, upper voltage current -2250V, lower voltage current -500V, separation time 40 sec, system delay 100.0 sec).
From the conversion rate read by EZ Reader, the remaining activity was calculated according to the following formula. Remaining Activity (%) = 100% × (CRSample −CRLC)/(CRHC −CRLC) [formula]
IC50 was calculated using XLfit, and IC50 was calculated by Formula 201 as the fitting formula.

Ba/F3 BCR-ABL1-E255K = assay: Inhibition of proliferation of BaF3 cells overexpressing BCR-ABL1 mutations (CellTiter-Glo); assay type: cell-based, Mouse; conditions: 72 h
Excerpt: (§1) The test objective was to evaluate the inhibitory activity of the compounds of the present invention against proliferation of the Ba/F3 BCR-ABL1-T315I, Ba/F3 BCR-ABL1-E255K, Ba/F3 BCR-ABL1-E255V, and Ba/F3 BCR-ABL1-G250E mutation models of mouse primary B cells cultured in vitro.
(§2) CellTiter-Glo® Luminescent Cell Viability Assay was used to detect the inhibitory effect of drugs on tumor cell proliferation and growth. The logarithmic growth phase cells cultured overnight were directly taken, pipetted up and down, mixed and counted, the cell density was adjusted according to different cell density requirements, and the cells were prepared into a cell suspension and plated on a 96-well plate. Drugs at different concentrations were added, 3 replicate wells were set for each concentration, and corresponding vehicle controls were set. The maximum test concentration in Ba/F3 BCR-ABL1-T315I and Ba/F3 BCR-ABL1-E255K cells was 10000 nM, with 3.16-fold gradient dilution and a total of 9 concentrations (10000-1.0058 nM). The maximum concentration of the compounds detected in other cells was 500 nM, with 3.16-fold gradient dilution, and a total of 9 concentrations (500-0.0503 nM). The cells with the compound being added were cultured for another 72 h at 37°C and 5% CO2. The culture plate and its contents were equilibrated to room temperature, the CellTiter-Glo® reagent was added, the contents were mixed on a shaker for 5 min to induce cell lysis, the culture plate was further incubated at room temperature in the dark for 20 min, and the luminescence was read with a microplate reader.

Ba/F3 BCR-ABL1-E255V = assay: as above; assay type: cell-based, Mouse; conditions: 72 h
Excerpt: as §1, §2

Ba/F3 BCR-ABL1-G250E = assay: as above; assay type: cell-based, Mouse; conditions: 72 h
Excerpt: as §1, §2

Ba/F3 BCR-ABL1-T315I = assay: as above; assay type: cell-based, Mouse; conditions: 72 h
Excerpt: as §1, §2

[1] = system: human chronic granulocytic leukemia cells KCL22-r; assay: Inhibition of proliferation of tumor cell strains carrying BCR-ABL1 fusion mutations (CellTiter-Glo); assay type: cell-based; conditions: KCL22-r (imatinib-resistant strain), 72 h
Excerpt: (§3) The test objective was to evaluate the inhibitory activity of the compounds of the present invention against proliferation of human erythroleukemia cells K562, human peripheral blood basophilic leukemia cells Ku812, and human chronic granulocytic leukemia cells KCL22-s and KCL22-r cultured in vitro.
(§4) CellTiter-Glo® Luminescent Cell Viability Assay was used to detect the inhibitory effect of drugs on tumor cell proliferation and growth. The logarithmic growth phase cells cultured overnight were directly taken, pipetted up and down, mixed and counted, the cell density was adjusted according to different cell density requirements, and the cells were prepared into a cell suspension and plated on a 96-well plate. Drugs at different concentrations were added, three replicate wells were set for each concentration, and corresponding solvent controls were set. The maximum concentration of compound detected was 500 nM, with 3-fold gradient dilution, and a total of 9 concentrations (500-0.076 nM). The cells with the compound being added were cultured for another 72 h at 37°C and 5% CO2. The culture plate and its contents were equilibrated to room temperature, the CellTiter-Glo® reagent was added, the contents was mixed on a shaker for 3 min to induce cell lysis, the culture plate was further incubated at room temperature in the dark for 10 min, and the chemiluminescence signal value was determined by a microplate reader (BioTek SynergyH1).

[2] = system: human chronic granulocytic leukemia cells KCL22-s; assay: as above; assay type: cell-based; conditions: KCL22-s (imatinib-sensitive strain), 72 h
Excerpt: as §3, §4

[3] = system: human erythroleukemia cells K562; assay: as above; assay type: cell-based; conditions: 72 h
Excerpt: as §3, §4

[4] = system: human peripheral blood basophilic leukemia cells Ku812; assay: as above; assay type: cell-based; conditions: 72 h
Excerpt: as §3, §4

[5] = system: human chronic myeloid leukemia cell strain KCL22-s; assay: Efficacy on subcutaneous xenograft tumor model of KCL22-s; conditions: oral, dosing cycle 15 days
[6] = Pharmacokinetic study in rats; assay type: in vivo; conditions: for AUC(0-inf) / Cmax / MRT / Tmax / half-life: in vivo, suspension in 0.5% HPMC K4M
Protocol: (§5) The crystal form A of the p-tosylate of the compound was fully suspended in an aqueous solution of 0.5% HPMC (hydroxypropylmethyl cellulose) K4M, and then administered to rats by gavage at a dosage of 10 mg/kg and 30 mg/kg, with three rats in each parallel experiment. The amount of the compound was fully converted into the amount of an equivalent free base.

[7] = Pharmacokinetic study in dogs; assay type: in vivo, beagle dogs
Protocol: as §5, with “to beagle dogs” for “to rats”, “of 20” for “of 10”, “and a dose volume of 5 mL/kg,” for “and 30 mg/kg,”, “three dogs” for “three rats”

[8] = Dynamic vapor sorption experiment; assay type: physicochemical
Protocol: The crystal form A of the p-tosylate of the compound was placed in saturated water vapor with different relative humidities to reach a dynamic equilibrium between the compound and the water vapor, and the percentage of hygroscopic weight gain of the compound after reaching the equilibrium was calculated.

[9] = Thermodynamical stability experiment (polymorph screening by slurrying, XRPD); assay type: physicochemical
Protocol: An organic solvent with certain solubility was selected, and the crystal form A of the p-tosylate of the compound was suspended in the solvent system. The resulting system was slurried by stirring at room temperature for 2 weeks, and centrifuged. The supernatant was discarded. After the solid was dried under vacuum at 50°C (-0.1 MPa) for 16 h, the XRPD pattern of the solid was measured and compared with the XRPD of the salt of the starting compound.

[10] = as above; assay type: physicochemical; conditions: comparison of DSC patterns of crystal forms A-E
[11] = dog, in vivo, po, beagle dogs, gavage 20 mg/kg, suspension in 0.5% HPMC K4M

Compound: p-tosylate of (3R)-N-(4-(chlorodifluoromethoxy)phenyl)-2-(difluoromethyl)-3-methyl-3,4,5a,6-tetrahydro-5-oxa-1,2a,6,8-tetraazabenzo[4,5]cyclooctyl[1,2,3-ed]indene-11-carboxamide [Example 1]
- IC50 (ABL1 WT kinase): 0.43 nM
- IC50 (Ba/F3 BCR-ABL1-E255K): 26.3 nM
- IC50 (Ba/F3 BCR-ABL1-E255V): 7.15 nM
- IC50 (Ba/F3 BCR-ABL1-G250E): 5.36 nM
- IC50 (Ba/F3 BCR-ABL1-T315I): 46.8 nM
- IC50 [1]: 14.6 nM
- IC50 [2]: 2.99 nM
- IC50 [3]: 13 nM
- IC50 [4]: 4.13 nM
- T/C ([5]; 1.5 mg/kg bid): 7.05%
- TGI ([5]; 1.5 mg/kg bid): 98.20%
- Tumor volume ([5]; 1.5 mg/kg bid): 143±35 mm^3
- T/C ([5]; 3 mg/kg bid): 0.69%
- TGI ([5]; 3 mg/kg bid): 187.08%
- Tumor volume ([5]; 3 mg/kg bid): 14±5 mm^3
- T/C ([5]; 3 mg/kg qd): 3.98%
- TGI ([5]; 3 mg/kg qd): 127.26%
- Tumor volume ([5]; 3 mg/kg qd): 81±19 mm^3
- T/C ([5]; 7.5 mg/kg bid): 0.52%
- TGI ([5]; 7.5 mg/kg bid): 190.62%
- Tumor volume ([5]; 7.5 mg/kg bid): 11±7 mm^3

Compound: C[C@@H]1COC2NC=NC=C2c2cc(C(=O)Nc3ccc(OC(F)(F)Cl)cc3)cc3nc(C(F)F)n1c23 (some centres unmarked) [Crystal form A of p-tosylate]
- AUC(0-inf) ([6]; Rat PO 10 mg/kg): 2600 ng·h/mL
- Cmax ([6]; Rat PO 10 mg/kg): 881 ng/mL
- MRT ([6]; Rat PO 10 mg/kg): 2.86 h
- Tmax ([6]; Rat PO 10 mg/kg): 1 h
- half-life ([6]; Rat PO 10 mg/kg): 3.55 h
- AUC(0-inf) ([6]; Rat PO 30 mg/kg): 15600 ng·h/mL
- Cmax ([6]; Rat PO 30 mg/kg): 4510 ng/mL
- MRT ([6]; Rat PO 30 mg/kg): 2.97 h
- Tmax ([6]; Rat PO 30 mg/kg): 1 h
- half-life ([6]; Rat PO 30 mg/kg): 2.71 h
- F ([7]; beagle dogs, gavage 20 mg/kg, suspension in 0.5% HPMC K4M): 68.6%
- AUC(0-inf) [7, 11]: 40400 ng·h/mL
- Cmax [7, 11]: 5720 ng/mL
- MRT [7, 11]: 5.47 h
- Tmax [7, 11]: 1.33 h
- half-life [7, 11]: 5.58 h

Compound: Cc1ccc(NC(=O)c2ccc(CN3CCN(C)CC3)cc2)cc1Nc1nccc(-c2cccnc2)n1 [Imatinib]
- T/C ([5]; 75 mg/kg qd): 46.92%
- TGI ([5]; 75 mg/kg qd): 56.03%

- crystal form (XRPD pattern) after hygroscopic-dehygroscopic cycles ([8]; 2 cycles at relative humidity of 0-95%): remained unchanged
- hygroscopic weight gain ([8]; at RH 80%): 0.3545%
- stability in a humid environment ([8]; conclusion in words): stable in a humid environment
- Crystal form results ([9]; Initial (before slurrying)): Form A
- Crystal form results ([9]; slurried in 2-butanone, room temperature, 2 weeks, XRPD): Form A
- Crystal form results ([9]; slurried in 2-methyltetrahydrofuran, room temperature, 2 weeks, XRPD): Form A
- Crystal form results ([9]; slurried in 3-pentanone, room temperature, 2 weeks, XRPD): Form A
- Crystal form results ([9]; slurried in Acetone, room temperature, 2 weeks, XRPD): Form A
- Crystal form results ([9]; slurried in Acetonitrile, room temperature, 2 weeks, XRPD): Form A
- Crystal form results ([9]; slurried in Chloroform, room temperature, 2 weeks, XRPD): Form A
- Crystal form results ([9]; slurried in Dichloromethane, room temperature, 2 weeks, XRPD): Form A
- Crystal form results ([9]; slurried in Ethanol, room temperature, 2 weeks, XRPD): Form A
- Crystal form results ([9]; slurried in Ethyl acetate, room temperature, 2 weeks, XRPD): Form A
- Crystal form results ([9]; slurried in Ethyl formate, room temperature, 2 weeks, XRPD): Form A
- Crystal form results ([9]; slurried in Isopropanol, room temperature, 2 weeks, XRPD): Form A
- Crystal form results ([9]; slurried in Isopropyl acetate, room temperature, 2 weeks, XRPD): Form A
- Crystal form results ([9]; slurried in Methanol, room temperature, 2 weeks, XRPD): Form A
- Crystal form results ([9]; slurried in Tetrahydrofuran, room temperature, 2 weeks, XRPD): Form A
- Crystal form results ([9]; slurried in Toluene, room temperature, 2 weeks, XRPD): Form A
- Crystal form results ([9]; slurried in n-heptane, room temperature, 2 weeks, XRPD): Form A
- pharmacokinetics in rats (in words) ([6]; gavage, dose of 30 mg/kg): good metabolic properties
Compound: (3R)-N-(4-(chlorodifluoromethoxy)phenyl)-2-(difluoromethyl)-3-methyl-3,4,5a,6-tetrahydro-5-oxa-1,2a,6,8-tetraazabenzo[4,5]cyclooctyl[1,2,3-cd]indene-11-carboxamide [crystal form A of the p-tosylate]
- pharmacokinetics in dogs (in words) ([7]; gavage, 20 mg/kg): good metabolic properties, exposure dosage, and significantly improved bioavailability
- thermodynamic stability among crystal forms of the p-tosylate [10]: the most thermodynamically stable crystal form among these crystal forms
